From PMC7352952, “Peptides Derived from (RRWQWRMKKLG)2-K-Ahx Induce Selective Cellular Death in Breast Cancer Cell Lines through Apoptotic Pathway” (International Journal of Molecular Sciences, 2020)
Values after ≈ are worked out from the molar mass of the structure shown. Like-named read-outs stand apart in the source and are kept apart here. Values belong to the molecule of their own block, whether it stands above or below them. Bridge positions count the residues as written; N and C are the ends. Square brackets hold non-standard residues; d marks the D form. Peptide text beside a SMILES is read from it. I, II: the chains in the order shown. Ahx = NCCCCCC(=O)O

Assays:
MCF-7 cells [1] = test: Cell morphology and size by inverted microscope; type: cell-based, human; settings: MCF-7, 90 min of treatment, 37 °C; from 100.27 μm before; average of 100 measurements; Figure 3: 100 µg/mL
Description: Cell morphology was monitored before and after treatment with ^26[L] or ^26[F] at different times, using an inverted microscope coupled to an AxioCam ICc1 camera (Figure 3). The untreated cells had normal morphologic characteristics as polygonal, flattened, and elongated cells with long and defined axons (data not shown). After 5 min of treatment with the peptide, most cells retained their morphology; however, some began to appear rounded and shrunken. After 90 min, the cells treated with the peptide (^26[L] or ^26[F]) took on a rounded shape, and shrinkage was observed, going from an average size of 100.27 μm to 39.38 µm. […] At 24 h of treatment, the appearance of small vacuoles was observed, presumably associated with late apoptosis events. Finally, it was observed that the effect of the peptide was sustained up to 48 h since at that time no recovery of cell morphology was observed.
Figure 3 Micrography of MCF-7 cells treated with peptide ^26[F] at 100 µg/mL. The cells were incubated in the absence (A) or the presence of the peptide at (B) 5 min, (C) 90 min, (D) 240 min, (E) 24 h, and (F) 48 h at 37 °C. The cell size was determined as an average of 100 measurements, using an AxioCam ICc1 camera.

HTB-132 cell line [2] = test: MTT viability test, HTB-132 cells; type: cell-based, human; settings: for IC50, cytotoxic effect, HTB-132: 24 h at 37 °C, mean of n = 3
Description: (§1) For all cell lines, the medium used was Dulbecco’s Modified Eagle’s Medium (DMEM)/Nutrient Mixture F-12 Ham. For the HTB-132, MCF-7, and MCF-12A lines, the medium was supplemented with 10% fetal bovine serum (SFB), and 1.5 g/L NaHCO3 and NaOH were added up to pH 7.4, amphotericin (200 μg/mL), and 1% penicillin and streptomycin. For the primary culture cells of bovine mammary epithelium and fibroblasts, in addition to the above, hydrocortisone (250 μg/mL) was added. All media were filtered through a 0.22 μm membrane.
(§2) Briefly, the cells were seeded with a complete medium in 96-well plates at a rate of 10,000 cells and 100 µL per well, and adhesion to the plates was allowed for 24 h. Subsequently, the complete medium was removed and an incomplete medium was added for synchronization for another 24 h. The cells were then incubated at 37 °C for 2, 24, or 48 h with 100 μL of peptide at the concentrations to be evaluated (200, 100, 50, 25, 12.5, 6.25 and 3.1 μg/mL). Next, the peptide was removed from the box, and 100 µL of incomplete medium with 10% 3-4,5-dimethylthiazol-2-yl-2,5-diphenyltetrazole (MTT) bromide was added and incubated for 4 h. The medium was replaced with 100 μL of isopropanol (IPA), and after 30 min of incubation at 37 °C, the absorbance was measured at 575 nm. As a negative control, an incomplete culture medium with 10% MTT was used, and as a positive control, cells without MTT treatment were used.

MCF-7 cells [3] = test: Type of cell death (apoptosis/necrosis), Annexin V/PI flow cytometry; type: cell-based, human; settings: MCF-7, peptide 15 µM, 24 h, annexin V and PI
Description: The cells were seeded and synchronized in boxes of 24 wells at a concentration of 4 × 10^4 cells/well in 400 μL/well, adhesion and synchronization were allowed in the same way as in Section 4.8, and the culture medium was replaced with medium containing the peptide to be evaluated and incubated for 2 or 24 h. Subsequently, the cells were harvested with trypsin, centrifuged at 2500 rpm for 10 min, washed with PBS, and resuspended in 10 μL of staining buffer with the fluorochromes (10 mM Hepes pH 7.4; 10 mM NaCl and 2.5 mM CaCl2 containing 1 μL of PI fluorochrome and 1 μL of Annexin V). Cells with the fluorochromes were incubated at 37 °C in the dark for 15 min and resuspended in 80 μL of staining buffer without fluorochromes for analysis via flow cytometry. The positive control of necrosis was: cells treated with EDTA 15 mM for 60 min, and apoptotic: cells treated with Actinomycin at 10 μM for 24 h. Negative control: cells without treatment; compensation controls: (i) cells stained only with Annexin, and (ii) only with PI; population control: unstained and untreated cells.

MCF-12 cell line = type: cell-based, human
Description: as §1, §2

MCF-7 cell line = test: MTT viability test, MCF-7 cells; type: cell-based, human
Description: as §1, §2

[4] = test system: breast cancer cell lines HTB-132 and MCF-7; type: cell-based, human; settings: 24 h
Description: as §2

MCF-7 cells [5] = test: Integrity of the cytoplasmic membrane, SYTO9/PI flow cytometry; type: cell-based, human; settings: MCF-7, peptide 15 µM, PI and SYTO9
Description: The cells with complete medium were seeded and synchronized in boxes of 24 wells in a concentration of 4 × 10^4 cells/well in a volume of 400 μL/well, and adhesion to the plate was allowed for 24 h [52]. Then the complete medium was replaced by incomplete medium for synchronization of the cells for an additional 24 h. […] The cells were harvested by adding 200 μL of trypsin and incubating for 10 min. The trypsin was quenched with 200 µL of complete medium, and the cells were centrifuged at 2500 rpm for 10 min. The supernatant was discarded, and the pellet was washed with 100 µL PBS and centrifuged under the same conditions previously described. The supernatant was discarded, and the cells were stained with 30 μL of a solution from the LIVE/DEAD® FungaLigthTM commercial kit (Invitrogen) containing the mixture of fluorochromes (0.5 μL of SYTO9 and/or 0.5 μL of propidium iodide (PI) with 99 μL of PBS). Subsequently, the cells were incubated at room temperature and in the dark for 20 min and centrifuged, and the supernatant was discarded. The pellet was resuspended in 100 μL of PBS and analyzed via flow cytometry in a BD Accuri C6 device. The events were recorded using the green channel (FL1) on the abscissa axis and the red (FL3) on the ordinate axis. Negative control: untreated cells marked with both fluorophores; positive control: cells treated with actinomycin 10 μg/mL for 24 h [52]. […]

MCF-7 cells [6] = test: Mitochondrial membrane depolarization, JC-1 flow cytometry; type: cell-based, human; settings: MCF-7, peptide 15 µM
Description: For this test, the MitoProbeTM JC-1 Assay kit (M34152 from Termofisher, Walthan, MA, USA) was used according to the supplier’s recommendations. The cells seeded and synchronized in a box of 24 wells (4 × 10^4 cells/well) were incubated with 400 μL of peptide to be evaluated at 2 and 24 h. The cells were then trypsinized and collected by centrifugation at 400 g × 5 min. The resulting pellet was stained by adding 100 μL of JC1 “working solution” (1:100 JCI solution reconstituted in DMSO: buffer assay 1×) and incubated at 37 °C for 20 min. Subsequently, the cells were washed twice with 1× buffer assay and finally resuspended in 100 μL of 1× buffer assay for reading on the cytometer. Negative control: cells without treatment; positive control: cells treated with 10 μM actinomycin for 24 h.

HTB-132 cell line [7] = test: MTT viability test, HTB-132 cells; type: cell-based, human; settings: 24 h, concentration range 1–100 µg/mL
Stability during storage = type: physicochemical; settings: Met residue prone to oxidation; Supplementary Figure S1
[8] = test system: MDA-MB 231 breast cancer cells; settings: peptide 100 µg/mL (30 µM); earlier work, ref not given; cited from earlier work
Excerpt: (§3) Breast cancer is the most common cancer type diagnosed worldwide. There are 2.1 million cases annually, and 627,000 deaths of women due to this disease were reported in 2018 [5]. […] However, when this motif was modified or included in longer sequences, the cytotoxic effect against human cancer cell lines increased. In ...

[9] = test system: MDA-MB 468 breast cancer cells; settings: peptide 100 µg/mL (30 µM); earlier work, ref not given; cited from earlier work
Excerpt: as §3

[10] = MTT, 24 h at 37 °C, three independent experiments with n = 4 each

IC50 (MCF-12 cell line; 24 h): 21 µM
IC50 [4]: 6 to 13 µM
Structure (SMILES): CC(C)C[C@H](NC(=O)[C@H](CCCCN)NC(=O)[C@H](CCCCN)NC(=O)[C@H](Cc1ccccc1)NC(=O)[C@H](CCCNC(=N)N)NC(=O)[C@H](Cc1c[nH]c2ccccc12)NC(=O)[C@H](CCC(N)=O)NC(=O)[C@H](Cc1c[nH]c2ccccc12)NC(=O)[C@H](CCCNC(=N)N)NC(=O)[C@@H](N)CCCNC(=N)N)C(=O)NCC(=O)NCCCC[C@H](NC(=O)CNC(=O)[C@H](CC(C)C)NC(=O)[C@H](CCCCN)NC(=O)[C@H](CCCCN)NC(=O)[C@H](Cc1ccccc1)NC(=O)[C@H](CCCNC(=N)N)NC(=O)[C@H](Cc1c[nH]c2ccccc12)NC(=O)[C@H](CCC(N)=O)NC(=O)[C@H](Cc1c[nH]c2ccccc12)NC(=O)[C@H](CCCNC(=N)N)NC(=O)[C@@H](N)CCCNC(=N)N)C(=O)NCCCCCC(N)=O [^26[F], (RRWQWRFKKLG)2-K-Ahx] (I: H-RRWQWRFKKLGK[Ahx]-NH2 / II: H-RRWQWRFKKLG; amide I:12-II:C)
average cell size after treatment (MCF-7 cells [1]): 39.38 µm
cytotoxic effect against HTB-132 compared with ^26[M] (in words) (HTB-132 cell line [2]; MTT, 24 h): greater cytotoxic effect against cancer cells than the original peptide
IC50, cytotoxic effect, HTB-132 (HTB-132 cell line [2]; MTT): 43 µg/mL (≈ 12.9 µM)
IC50 (HTB-132 cell line [2]; human, 24 h, pH 7.4): 13 µM
cell population dyed with both fluorophores (apoptotic process) (MCF-7 cells [3]): 54%
cell population dyed with only PI (necrotic process) (MCF-7 cells [3]): 21%
cytotoxic effect against MCF-12 compared with HTB-132 and MCF-7 (in words) (MCF-12 cell line): lower cytotoxic effect against MCF-12 cells than against breast cancer cell lines
IC50, non-tumorigenic cell line MCF-12 (MCF-12 cell line; MTT, 24 h at 37 °C): 70 µg/mL (≈ 20.9 µM)
cytotoxic effect against MCF-7 compared with ^26[M] (in words) (MCF-7 cell line; MTT, 24 h): greater cytotoxic effect against MCF-7 cells than the peptide
IC50, cytotoxic effect, MCF-7 (MCF-7 cell line; [10]): 19 µg/mL (≈ 5.68 µM)
maximum cytotoxic effect, MCF-7 (MCF-7 cell line; MTT, peptide 200 µg/mL, regardless of treatment time (2, 24, 48 h)): approximately 90%
IC50 (MCF-7 cell line; human, 24 h, pH 7.4): 6 µM
cell population with cytoplasmic membrane affected (MCF-7 cells [5]): 10%
population with depolarization of the mitochondrial membrane (MCF-7 cells [6]): 19%

Structure (SMILES): CSCC[C@H](NC(=O)[C@H](CCCNC(=N)N)NC(=O)[C@H](Cc1c[nH]c2ccccc12)NC(=O)[C@H](CCC(N)=O)NC(=O)[C@H](Cc1c[nH]c2ccccc12)NC(=O)[C@H](CCCNC(=N)N)NC(=O)[C@@H](N)CCCNC(=N)N)C(=O)N[C@@H](CCCCN)C(=O)N[C@@H](CCCCN)C(=O)N[C@@H](CC(C)C)C(=O)NCC(=O)NCCCC[C@H](NC(=O)CNC(=O)[C@H](CC(C)C)NC(=O)[C@H](CCCCN)NC(=O)[C@H](CCCCN)NC(=O)[C@H](CCSC)NC(=O)[C@H](CCCNC(=N)N)NC(=O)[C@H](Cc1c[nH]c2ccccc12)NC(=O)[C@H](CCC(N)=O)NC(=O)[C@H](Cc1c[nH]c2ccccc12)NC(=O)[C@H](CCCNC(=N)N)NC(=O)[C@@H](N)CCCNC(=N)N)C(=O)NCCCCCC(N)=O [^26[M], (RRWQWRMKKLG)2-K-Ahx] (I: H-RRWQWRMKKLGK[Ahx]-NH2 / II: H-RRWQWRMKKLG; amide I:12-II:C)
IC50, cytotoxic effect, HTB-132 (HTB-132 cell line [2]; MTT): 96 µg/mL (≈ 29 µM)
cytotoxic effect at the maximum evaluated concentration, HTB-132 (HTB-132 cell line [7]): ~55%
cytotoxic effect against MCF-7 (in words) (MCF-7 cell line; MTT, 24 h): does not exhibit a significant cytotoxic effect
IC50, cytotoxic effect, MCF-7 (MCF-7 cell line; [10]): > 200 µg/mL
IC50 (MCF-7 cell line; MTT, 24 h at 37 °C, three independent experiments with n = 4 each, read-out: IC50, cytotoxic effect, MCF-7): > 60 µM
stability during storage (in words) (Stability during storage): stability problems
cellular viability, MDA-MB 231 [8]: ~ 0%
cytotoxic effect, MDA-MB 231 [8]: ~100%
cellular viability, MDA-MB 468 [9]: ~ 0%
cytotoxic effect, MDA-MB 468 [9]: ~100%
